Reference: US4460777A, “N-Substituted-2-pyridylindoles” (Ciba-Geigy Corporation, priority 1982, dated 1984)
Each block holds one molecule with its values, some of them ahead of it.

Columns and labels:
thromboxane B2 = test: plasma levels of thromboxane B2 in vivo after ionophore A23187 in rats; settings: rat, oral dose as low as 0.10 mg/kg
Method: (§1) The inhibition of the synthesis and the reduction of plasma levels of thromboxane is determined in vivo on administration to rats in the following manner (as adapted from the procedures described by Tai et al. in Anal. Biochem. 87:343, 1978 and by Salmon in Prostaglglandins 15:383, 1978):
(§2) Rats are dosed with vehicle or test drug and injected intravenously with ionophore A23187 (0.5 mg/kg) two hours later. Blood is collected for analysis 2 minutes after the ionophore injection. A single aliquot of each plasma sample is assayed for thromboxane B2 and another aliquot for 6-keto-PGF1 α, the stable metabolites of thromboxane A2 and prostacyclin (PGI2) respectively, by radioimmunoassay.

thrombocytopenia = test: inhibition of thrombocytopenia
[1] = target: T1, prostaglandin cyclooxygenase (Ovis aries, UniProt P05979); test: in-vitro effect on prostaglandin cyclooxygenase; format: biochemical, sheep; settings: 50% reduction in PGE2 synthesized, read-out: IC50 for inhibition of cyclooxygenase
T1 construct: Lyophilized sheep seminal vesicle microsomes are utilized as the prostaglandin-synthesizing enzyme preparation; from tissue; host or cells: lyophilized sheep seminal vesicle microsomes
T1 sequence (P05979 25-600): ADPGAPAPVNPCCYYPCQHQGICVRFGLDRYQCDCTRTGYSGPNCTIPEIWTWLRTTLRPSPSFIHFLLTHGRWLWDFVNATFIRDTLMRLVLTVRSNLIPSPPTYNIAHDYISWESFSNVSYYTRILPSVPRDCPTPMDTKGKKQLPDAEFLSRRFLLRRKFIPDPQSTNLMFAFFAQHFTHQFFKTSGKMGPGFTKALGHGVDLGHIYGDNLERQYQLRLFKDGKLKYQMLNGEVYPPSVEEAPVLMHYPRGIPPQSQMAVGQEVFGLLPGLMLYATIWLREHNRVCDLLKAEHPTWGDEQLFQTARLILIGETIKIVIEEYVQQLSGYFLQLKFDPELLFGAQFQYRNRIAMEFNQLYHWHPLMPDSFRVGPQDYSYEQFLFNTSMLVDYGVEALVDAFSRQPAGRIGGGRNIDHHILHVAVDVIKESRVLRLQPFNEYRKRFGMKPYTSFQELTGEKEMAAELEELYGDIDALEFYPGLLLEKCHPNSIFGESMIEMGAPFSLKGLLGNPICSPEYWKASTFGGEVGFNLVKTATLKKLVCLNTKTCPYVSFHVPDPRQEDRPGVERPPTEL
Method: The in-vitro effect on prostaglandin cyclooxygenase is measured by a modification of the method of Takeguchi et al. described in Biochemistry 10, 2372 (1971); the testing procedure is as follows: Lyophilized sheep seminal vesicle microsomes are utilized as the prostaglandin-synthesizing enzyme preparation. The conversion of ^14 C-arachidonic acid to PGE2 is measured. Test compounds (dissolved in buffer, or if necessary, in small amount of ethanol) are added to the incubation mixture. The prostaglandins are extracted and separated by thin-layer chromatography; the plates are scanned, the radioactive zones corresponding to PGE2 are transferred to liquid scintillation vials and counted for radioactivity. IC50 values for inhibition are determined graphically as the concentration of test compound causing a 50% reduction in the amount of PGE2 synthesized.

[2] = target: T2, prostacyclin (PGI2) synthetase (Bos taurus, UniProt Q29626); test: in-vitro effect on prostacyclin (PGI2) synthetase; format: biochemical, bovine; settings: ratio 6-keto-PGF1α/PGE2 reduced to 50% of control, read-out: IC50 for inhibition of prostacyclin synthetase
T2 construct: crude PGI2 synthetase in the form of a microsomal fraction of bovine aorta; from tissue; host or cells: bovine aorta, microsomal fraction
T2 sequence (Q29626 1-500): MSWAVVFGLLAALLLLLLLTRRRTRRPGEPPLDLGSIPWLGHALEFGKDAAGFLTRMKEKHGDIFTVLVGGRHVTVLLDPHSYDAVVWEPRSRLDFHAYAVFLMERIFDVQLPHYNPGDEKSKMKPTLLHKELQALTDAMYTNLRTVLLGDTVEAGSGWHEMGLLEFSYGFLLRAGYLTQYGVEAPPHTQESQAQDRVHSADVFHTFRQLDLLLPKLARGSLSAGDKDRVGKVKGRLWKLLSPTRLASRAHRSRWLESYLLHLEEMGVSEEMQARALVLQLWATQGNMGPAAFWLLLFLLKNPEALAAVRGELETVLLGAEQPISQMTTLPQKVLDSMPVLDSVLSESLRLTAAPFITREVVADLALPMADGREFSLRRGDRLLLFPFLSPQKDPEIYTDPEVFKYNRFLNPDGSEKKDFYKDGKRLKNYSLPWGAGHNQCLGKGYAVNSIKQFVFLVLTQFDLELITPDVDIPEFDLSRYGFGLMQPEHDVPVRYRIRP
Method: The in-vitro effect on prostacyclin (PGI2) synthetase is measured analogous to the method of Sun et al., Prostaglandins 14, 1055 (1977);
The testing procedure is as follows:
^14 C-Arachidonic acid is incubated with an enzyme mixture consisting of solubilized and partially purified prostaglandin cyclo-oxygenase from sheep seminal vesicles and crude PGI2 synthetase in the form of a microsomal fraction of bovine aorta.
Test compound (dissolved in buffer, or if necessary, in a small amount of ethanol) is placed in the incubation medium. The reaction mixture is incubated in 100 mM Tris HCl (pH 7.5) for 30 minutes at 37° C., acidified to pH 3 and extracted into ethyl acetate. The extract is evaporated to dryness; the residue is dissolved in acetone, spotted on thin-layer plates and chromatographed in a solvent system described in Sun et al. The radioactive zones are located with a scanner; those corresponding to 6-keto-PGF1 α (a stable end product of prostacyclin biotransformation) and PGE2 are transferred to liquid scintillation vials and counted. The ratio of counts for 6-keto-PGF1 α/PGE2 is calculated for each concentration of test compound used. IC50 values for inhibition are determined graphically as the concentration of test compound at which the ratio of 6-keto-PGF1 α/PGE2 is reduced to 50% of the control value.

[3] = prolongation of bleeding time in the rat; format: in vivo; settings: oral, dose of about 30 mg/kg
Excerpt: Experimentally, prolongation of bleeding time in the rat is indicative of a beneficial antithrombotic effect.

prostacyclin (PGI2) = test: plasma levels of prostacyclin in vivo after ionophore A23187 in rats; settings: rat, oral dose 0.10 mg/kg or higher
Method: as §1, §2

platelet aggregation = test: inhibition of variously induced platelet aggregation
[4] = tested on: arachidonic acid induced pulmonary obstruction; test: protection against sudden death due to arachidonic acid induced pulmonary obstruction; format: in vivo; settings: mice, oral, 100 mg/kg
thromboxane synthetase = target: T3, thromboxane synthetase (Homo sapiens, UniProt P24557); test: in vitro inhibition of the thromboxane synthetase enzyme; format: biochemical; settings: ratio TxB2/PGF2α+β reduced to 50% of control
T3 construct: crude microsomal preparation of thromboxane synthetase from lysed human platelets; from tissue; host or cells: lysed human platelets, crude microsomal preparation
T3 sequence (P24557 1-533): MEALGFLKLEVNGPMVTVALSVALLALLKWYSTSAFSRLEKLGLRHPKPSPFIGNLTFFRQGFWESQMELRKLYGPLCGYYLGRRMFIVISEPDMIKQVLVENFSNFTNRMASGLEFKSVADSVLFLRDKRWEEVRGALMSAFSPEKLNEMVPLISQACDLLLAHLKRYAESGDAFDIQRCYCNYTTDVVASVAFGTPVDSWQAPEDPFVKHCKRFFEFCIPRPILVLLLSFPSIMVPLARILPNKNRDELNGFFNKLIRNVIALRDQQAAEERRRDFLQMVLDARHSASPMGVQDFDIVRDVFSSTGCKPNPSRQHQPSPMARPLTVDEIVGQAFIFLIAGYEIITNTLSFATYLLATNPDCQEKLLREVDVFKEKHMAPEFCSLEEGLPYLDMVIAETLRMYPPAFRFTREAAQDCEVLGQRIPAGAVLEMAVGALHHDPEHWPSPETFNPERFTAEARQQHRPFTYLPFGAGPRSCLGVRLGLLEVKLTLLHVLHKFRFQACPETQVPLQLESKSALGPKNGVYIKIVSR
Method: Res. Comm. 74, 1432 (1977); the testi g procedure is as follows:
^14 C-Archidonic acid is incubated with an enzyme consisting of solubilized and partially purified prostaglandin cyclo-oxygenase from sheep seminal vesicles and a crude microsomal preparation of thromboxane synthetase from lysed human platelets. The test compound (dissolved in buffer, or if necessary, in a small amount of ethanol) is added to the incubation medium. At the end of the incubation period (30 minutes), Prostaglandin E2 (PGE2) is reduced to a mixture of Prostaglandin F2 α and F2 β (PGF2α+β) by addition of sodium borohydride. The radioactive products and excess substrate are extracted into ethyl acetate; the extract is evaporated to dryness; the residue is dissolved in acetone, spotted on thin-layer plates and chromatographed in the solvent system toluene:acetone:glacial acetic acid (100 volumes:100 volumes:3 volumes). The radioactive zones are located; those corresponding to Thromboxane B2 (TxB2) and PGF2 α+β are transferred to liquid scintillatiopn vials and counted. The ratio of counts for TxB2 /PGF2 α+β is calculated for each concentration of test compound and IC50 values are determined graphically as the concentration of test compound at which the ratio of TxB2 /PGF2 α+β is reduced to 50% of the control value.

IC50 (thromboxane synthetase): 1 nM
SMILES: Cc1c(-c2cccnc2)n(CCCCCC(=O)O)c2ccc(Cl)cc12 [Example 7, 1-(5-carboxypentyl)-5-chloro-3-methyl-2-(3-pyridyl)indole]

IC50 (thromboxane synthetase): 50 nM
SMILES: Cc1c(-c2cccnc2)n(Cc2ccc(C(=O)O)cc2)c2ccccc12 [Example 11, 1-(4-carboxybenzyl)-3-methyl-2-(3-pyridyl)indole]

More lines, now with the values behind:

SMILES: Cc1c(-c2cccnc2)n(CCCCCCCC(=O)O)c2ccccc12 [Example 1, 1-(7-carboxyheptyl)-3-methyl-2-(3-pyridyl)indole]
decrease of the plasma concentration of thromboxane B2 (thromboxane B2): over 50% | inhibition of thrombocytopenia (thrombocytopenia): inhibits | IC50 [1]: ~100000 nM | IC50 [2]: ~100000 nM | bleeding time [3]: prolongs bleeding time | plasma level of prostacyclin (prostacyclin (PGI2)): a surprising increase | inhibition of variously induced platelet aggregation (platelet aggregation): inhibits | protection against sudden death [4]: protects against sudden death

SMILES: Cc1c(-c2cccnc2)n(CCCCCC(=O)O)c2ccc(CCC(=O)O)cc12 [Example 9, 1-(5-carboxypentyl)-5-(2-carboxyethyl)-3-methyl-2-(3-pyridyl)indole]
IC50 (thromboxane synthetase): 20 nM

SMILES: Cc1c(-c2cccnc2)n(CCCCCC(N)=O)c2ccc(Cl)cc12 [Example 13, 1-(5-carbamoylpentyl)-5-chloro-3-methyl-2-(3-pyridyl)indole]
IC50 (thromboxane synthetase): 10 nM
